Consider 25 compounds from patent publication US20250145585A1, “HETEROCYCLIC INHIBITORS OF IGF-1R FOR TREATMENT OF DISEASE” (HORIZON THERAPEUTICS IRELAND DAC, priority 2023, published 2025).

T1 sequence (P08069 31-1367): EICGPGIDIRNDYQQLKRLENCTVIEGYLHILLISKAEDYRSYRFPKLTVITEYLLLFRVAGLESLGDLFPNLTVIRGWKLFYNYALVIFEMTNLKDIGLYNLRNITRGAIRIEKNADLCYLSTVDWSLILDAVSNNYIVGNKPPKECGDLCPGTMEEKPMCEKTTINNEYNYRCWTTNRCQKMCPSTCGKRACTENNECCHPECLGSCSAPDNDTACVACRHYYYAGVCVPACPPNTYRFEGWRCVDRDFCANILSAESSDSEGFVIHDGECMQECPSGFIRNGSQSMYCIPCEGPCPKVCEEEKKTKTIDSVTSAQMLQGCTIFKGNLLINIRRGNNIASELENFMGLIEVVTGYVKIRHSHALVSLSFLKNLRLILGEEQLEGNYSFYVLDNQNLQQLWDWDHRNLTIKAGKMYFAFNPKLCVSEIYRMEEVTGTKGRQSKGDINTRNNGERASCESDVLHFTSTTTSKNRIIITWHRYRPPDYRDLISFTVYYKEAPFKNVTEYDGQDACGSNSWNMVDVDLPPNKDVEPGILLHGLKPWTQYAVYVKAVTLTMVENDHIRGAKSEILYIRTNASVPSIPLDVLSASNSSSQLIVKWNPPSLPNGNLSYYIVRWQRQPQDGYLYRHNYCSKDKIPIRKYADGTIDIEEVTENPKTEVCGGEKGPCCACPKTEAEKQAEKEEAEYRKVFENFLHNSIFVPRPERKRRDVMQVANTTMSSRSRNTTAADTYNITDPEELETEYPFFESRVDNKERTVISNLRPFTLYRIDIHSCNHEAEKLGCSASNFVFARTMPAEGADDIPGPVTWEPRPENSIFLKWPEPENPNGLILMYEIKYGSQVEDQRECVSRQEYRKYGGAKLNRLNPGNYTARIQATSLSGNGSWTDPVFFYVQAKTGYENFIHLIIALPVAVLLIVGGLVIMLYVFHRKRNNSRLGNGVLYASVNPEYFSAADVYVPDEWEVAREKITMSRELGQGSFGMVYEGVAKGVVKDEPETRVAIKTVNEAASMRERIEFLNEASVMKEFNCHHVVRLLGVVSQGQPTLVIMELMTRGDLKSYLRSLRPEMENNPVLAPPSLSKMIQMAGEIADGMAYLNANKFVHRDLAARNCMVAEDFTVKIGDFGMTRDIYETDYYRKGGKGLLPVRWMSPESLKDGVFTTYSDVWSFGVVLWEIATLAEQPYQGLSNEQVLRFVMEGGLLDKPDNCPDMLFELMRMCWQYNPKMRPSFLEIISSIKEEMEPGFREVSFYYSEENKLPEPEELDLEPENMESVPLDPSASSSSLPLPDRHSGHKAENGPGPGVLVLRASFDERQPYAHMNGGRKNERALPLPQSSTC

This experiment has as its target T1, IGF-1R (Homo sapiens, UniProt P08069).
T1 construct: expressed in transfected cells
As to the kind of experiment: Example B-2: IGF-1R Assay (PathHunter cell lines, EC80 agonist challenge, chemiluminescent detection). It is filed as cell-based. As to conditions: PathHunter cells, compound 60 minutes at 37° C., EC80 agonist 3 hours; read-out: IC50, Biological Activity against IGF-1R (Table B2). In a few lines: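 PathHunter cells were pre-incubated with compound for 60 min at 37° C (1% vehicle), then challenged with EC80 agonist for 3 h at room temperature. Chemiluminescent detection after 1 h gave % inhibition relative to EC80 and vehicle controls, from which IC50 was derived.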
For orientation: IC50 means the point on the concentration scale where inhibition reaches its midpoint. As for `C[C@@H](CC#N)Nc1cc(CN2C(=O)N(c3ccc4c(c3)N(S(C)(=O)=O)CC43CC3)C(=O)C2(C)C)ccn1` [Compound 230, (S)-3-((4-((5,5-dimethyl-3-(1′-(methylsulfonyl)spiro[cyclopropane-1,3′-indolin]-6′-yl)-2,4-dioxoimidazolidin-1-yl)methyl)pyridin-2-yl)amino)butanenitrile], the IC50 was at most 500 nM.

As for `CC1(C)C(=O)N(c2ccc(S(C)(=O)=O)cc2)C(=O)N1Cc1ccnc2c1CC(=O)N2` [Compound 62, 5,5-dimethyl-3-(4-(methylsulfonyl)phenyl)-1-((2-oxo-2,3-dihydro-1H-pyrrolo[2,3-b]pyridin-4-yl)methyl)imidazolidine-2,4-dione], the IC50 was over 10000 nM.

For `CC(C)(C)c1ccc(N2C(=O)C(C)(C)N(Cc3ccnc4[nH]ccc34)C2=S)cc1` [Compound 407, 1-((1H-pyrrolo[2,3-b]pyridin-4-yl)methyl)-3-(4-(tert-butyl)phenyl)-5,5-dimethyl-2-thioxoimidazolidin-4-one], the IC50 is 500 to 2000 nM.

With `CC1(C)C(=O)N(c2ccc3c(c2)N(C(=O)C2CC2)CC3)C(=O)N1Cc1ccnc(N[C@H]2[C@@H]3COC[C@@H]32)c1` [Compound 252, 1-((2-(((1R,5S,6r)-3-oxabicyclo[3.1.0]hexan-6-yl)amino)pyridin-4-yl)methyl)-3-(1-(cyclopropanecarbonyl)indolin-6-yl)-5,5-dimethylimidazolidine-2,4-dione], the IC50 was over 10000 nM.

For `CC1(C)C(=O)N(c2ccc3c(c2)N(S(C)(=O)=O)CC32CCC2)C(=O)N1Cc1ccnc(NCC2CC2(F)F)c1` (stereo not shown) [Compound 232, 1-((2-(((2,2-difluorocyclopropyl)methyl)amino)pyridin-4-yl)methyl)-5,5-dimethyl-3-(1′-(methylsulfonyl)spiro[cyclobutane-1,3′-indolin]-6′-yl)imidazolidine-2,4-dione], the IC50 is at most 500 nM.

Regarding `CO[C@H](C)CNc1cc(CN2C(=O)N(c3ccc4c(c3)N(S(C)(=O)=O)CC43CCC3)C(=O)C2(C)C)ccn1` [Compound 239, (R)-1-((2-((2-methoxypropyl)amino)pyridin-4-yl)methyl)-5,5-dimethyl-3-(1′-(methylsulfonyl)spiro[cyclobutane-1,3′-indolin]-6′-yl)imidazolidine-2,4-dione], the IC50 is at most 500 nM.

Consider `COC[C@@H](C)Nc1cc(CN2C(=O)N(c3cc(C(C)(C)C)nn3C)C(=O)C2(C)C)ccn1` [Compound 259, (R)-3-(3-(tert-butyl)-1-methyl-1H-pyrazol-5-yl)-1-((2-((1-methoxypropan-2-yl)amino)pyridin-4-yl)methyl)-5,5-dimethylimidazolidine-2,4-dione], for which the IC50 was at most 500 nM.

For the compound `C[C@@H](CC#N)Nc1cc(CN2C(=O)N(c3cc(C(C)(C)C)nn3C)C(=O)C2(C)C)ccn1` [Compound 262, (S)-3-((4-((3-(3-(tert-butyl)-1-methyl-1H-pyrazol-5-yl)-5,5-dimethyl-2,4-dioxoimidazolidin-1-yl)methyl)pyridin-2-yl)amino)butanenitrile], the IC50 was over 10000 nM.

For `CC1(C)COc2cc(N3C(=O)N(Cc4ccnc5c4CC(=O)N5)C(C)(C)C3=O)c(Br)cc21` [Compound 53, 3-(5-bromo-3,3-dimethyl-2,3-dihydrobenzofuran-6-yl)-5,5-dimethyl-1-((2-oxo-2,3-dihydro-1H-pyrrolo[2,3-b]pyridin-4-yl)methyl)imidazolidine-2,4-dione], the IC50 was 500 to 2000 nM.

In the case of `CC1(C)C(=O)N(c2ccc(C3(C(F)(F)F)CC3)cc2)C(=O)N1Cc1ccnc(N[C@H]2[C@@H]3COC[C@@H]32)c1` [Compound 148, 1-((2-(((1R,5S,6r)-3-oxabicyclo[3.1.0]hexan-6-yl)amino)pyridin-4-yl)methyl)-5,5-dimethyl-3-(4-(1-(trifluoromethyl)cyclopropyl)phenyl) imidazolidine-2,4-dione], the IC50 is at most 500 nM.

On to `C[C@@H](CC#N)Nc1cc(CN2C(=O)N(c3ccc4c(c3)N(S(C)(=O)=O)CC43CCC3)C(=O)C2(C)C)ccn1` [Compound 221, (S)-3-((4-((5,5-dimethyl-3-(1′-(methylsulfonyl)spiro[cyclobutane-1,3′-indolin]-6′-yl)-2,4-dioxoimidazolidin-1-yl)methyl)pyridin-2-yl)amino)butanenitrile], for which the IC50 is at most 500 nM.

Turning to `CC1(C)C(=O)N(c2ccc3c(c2)N(S(C)(=O)=O)CC32CC2)C(=O)N1Cc1ccnc(N[C@H]2[C@@H]3COC[C@@H]32)c1` [Compound 222, 1-((2-(((1R,5S,6r)-3-oxabicyclo[3.1.0]hexan-6-yl)amino)pyridin-4-yl)methyl)-5,5-dimethyl-3-(1′-(methylsulfonyl)spiro[cyclopropane-1,3′-indolin]-6′-yl)imidazolidine-2,4-dione], the IC50 was at most 500 nM.

Turning to `CC1(C)C(=O)N(c2ccc3c(c2)N(S(C)(=O)=O)CC32CCC2)C(=O)N1Cc1ccnc(NCC2CCOC2)c1` (stereo not shown) [Compound 226, 5,5-dimethyl-3-(1′-(methylsulfonyl)spiro[cyclobutane-1,3′-indolin]-6′-yl)-1-((2-(((tetrahydrofuran-3-yl)methyl)amino)pyridin-4-yl)methyl)imidazolidine-2,4-dione], the IC50 was at most 500 nM.

Turning to `CN1CCCC(Nc2cc(CN3C(=O)N(c4ccc(S(=O)(=O)C(F)(F)F)cc4)C(=O)C3(C)C)ccn2)C1=O` (stereo not shown) [Compound 328, 5,5-dimethyl-1-((2-((1-methyl-2-oxopiperidin-3-yl)amino)pyridin-4-yl)methyl)-3-(4-((trifluoromethyl)sulfonyl)phenyl) imidazolidine-2,4-dione], the IC50 is over 10000 nM.

Take `CC1(C)CN(C(=O)C2CC2)c2cc(N3C(=O)N(Cc4ccnc5c4CC(=O)N5)C(C)(C)C3=O)ccc21` [Compound 39, 3-(1-(cyclopropanecarbonyl)-3,3-dimethylindolin-6-yl)-5,5-dimethyl-1-((2-oxo-2,3-dihydro-1H-pyrrolo[2,3-b]pyridin-4-yl)methyl)imidazolidine-2,4-dione]: the IC50 was at most 500 nM.

In the case of `C[C@@H](CC#N)Nc1cc(CN2C(=O)N(c3ccc4c(c3)N(C)CC4(C)C)C(=O)C2(C)C)ccn1` [Compound 217, (S)-3-((4-((5,5-dimethyl-2,4-dioxo-3-(1,3,3-trimethylindolin-6-yl)imidazolidin-1-yl)methyl)pyridin-2-yl)amino)butanenitrile], the IC50 is at most 500 nM.

For `CC1(C)C(=O)N(c2ccc3c(c2)CCS3(=O)=O)C(=O)N1Cc1ccnc(N[C@H]2[C@@H]3COC[C@@H]32)c1` [Compound 250, 1-((2-(((1R,5S,6r)-3-oxabicyclo[3.1.0]hexan-6-yl)amino)pyridin-4-yl)methyl)-3-(1,1-dioxido-2,3-dihydrobenzo[b]thiophen-5-yl)-5,5-dimethylimidazolidine-2,4-dione], the IC50 is over 10000 nM.

On to `CC(C)Nc1cc(CN2C(=O)N(c3ccc(C4(C#N)CC4(C)C)cc3)C(=O)C2(C)C)ccn1` (stereo not shown) [Compound 145, 1-(4-(3-((2-(isopropylamino)pyridin-4-yl)methyl)-4,4-dimethyl-2,5-dioxoimidazolidin-1-yl)phenyl)-2,2-dimethylcyclopropane-1-carbonitrile], for which the IC50 is at most 500 nM.

Consider `CO[C@@H](C)CNc1cc(CN2C(=O)N(c3ccc4c(c3)N(S(C)(=O)=O)CC43CCC3)C(=O)C2(C)C)ccn1` [Compound 238, (S)-1-((2-((2-methoxypropyl)amino)pyridin-4-yl)methyl)-5,5-dimethyl-3-(1′-(methylsulfonyl)spiro[cyclobutane-1,3′-indolin]-6′-yl)imidazolidine-2,4-dione], for which the IC50 is at most 500 nM.

Consider `CC1(C)C(=O)N(c2ccc(OC(F)(F)F)c(Cl)c2)C(=O)N1Cc1ccnc2c1CC(=O)N2` [Compound 287, 3-(3-chloro-4-(trifluoromethoxy)phenyl)-5,5-dimethyl-1-((2-oxo-2,3-dihydro-1H-pyrrolo[2,3-b]pyridin-4-yl)methyl)imidazolidine-2,4-dione], for which the IC50 fell in the range of 2000 to 10000 nM.

For `CC1(C)C(=O)N(c2ccc(S(=O)(=O)C(F)F)cc2)C(=O)N1Cc1ccnc2c1CC(=O)N2` [Compound 63, 3-(4-((difluoromethyl)sulfonyl)phenyl)-5,5-dimethyl-1-((2-oxo-2,3-dihydro-1H-pyrrolo[2,3-b]pyridin-4-yl)methyl)imidazolidine-2,4-dione], the IC50 lay in the range of 500 to 2000 nM.

As to `CC1(C)C(=O)N(c2ccc3c(c2)N(C(=O)C2CC2)CC32CCC2)C(=O)N1Cc1ccnc(NC2C3COCC32)c1` (stereo not shown) [Compound 234, 1-((2-((3-oxabicyclo[3.1.0]hexan-6-yl)amino)pyridin-4-yl)methyl)-3-(1′-(cyclopropanecarbonyl)spiro [cyclobutane-1,3′-indolin]-6′-yl)-5,5-dimethylimidazolidine-2,4-dione], the IC50 is at most 500 nM.

As to `COCCOC[C@@H](C)Nc1cc(CN2C(=O)N(c3ccc4c(c3)N(S(C)(=O)=O)CC4(C)C)C(=O)C2(C)C)ccn1` [Compound 224, (R)-3-(3,3-dimethyl-1-(methylsulfonyl)indolin-6-yl)-1-((2-((1-(2-methoxyethoxy)propan-2-yl)amino)pyridin-4-yl)methyl)-5,5-dimethylimidazolidine-2,4-dione], the IC50 was at most 500 nM.

Take `CC(C)Nc1cc(CN2C(=O)N(c3cnc4c(c3)OCC4(C)C)C(=O)C2(C)C)ccn1` [Compound 193, 3-(3,3-dimethyl-2,3-dihydrofuro[3,2-b]pyridin-6-yl)-1-((2-(isopropylamino)pyridin-4-yl)methyl)-5,5-dimethylimidazolidine-2,4-dione]: the concentration for half-maximal inhibition (IC50) lay within 2000 to 10000 nM.

`CC1(C)C(=O)N(c2ccc(S(=O)(=O)C(F)(F)F)cc2)C(=O)N1Cc1ccnc(N[C@H]2CCOC[C@@H]2F)c1` [Compound 334, 1-((2-(((3R,4S)-3-fluorotetrahydro-2H-pyran-4-yl)amino)pyridin-4-yl)methyl)-5,5-dimethyl-3-(4-((trifluoromethyl)sulfonyl)phenyl) imidazolidine-2,4-dione]: the IC50 is 500 to 2000 nM.
